test system: Beet Armyworm (BAW) (Spodoptera exigua); assay: Bioassay on beet armyworm (BAW), 128-well diet tray assay; format: in vivo; details: Spodoptera exigua; beet armyworm, 50 μg/cm^2; read-out: % Mortality BAW 50 μg/cm^2

SMILES	mortality at 50 µg/cm2 [%]
Fc1cccc(Cl)c1N1CCCS/C1=N\N=C\c1ccc(-c2ncn(-c3ccc(OC(F)(F)F)cc3)n2)cc1 [Compound 188C]	50 to 100
Fc1cccc(F)c1N1CCCS/C1=N\N=C\c1ccc(-c2ncn(-c3ccc(OC(F)(F)F)cc3)n2)cc1 [Compound 189C]	50 to 100
FC(F)(F)Oc1ccc(-n2cnc(-c3ccc(/C=N/N=C4\SCCCN4c4c(Cl)cccc4C(F)(F)F)cc3)n2)cc1 [Compound 190C]	50 to 100
COc1ccccc1N1CCCS/C1=N\N=C\c1ccc(-c2ncn(-c3ccc(OC(F)(F)F)cc3)n2)cc1 [Compound 191C]	50 to 100
COc1ccc(N2CCCS/C2=N\N=C\c2ccc(-c3ncn(-c4ccc(OC(F)(F)F)cc4)n3)cc2)c(C)c1 [Compound 192C]	50 to 100
CC(C)Cc1ccccc1N1CCCS/C1=N\N=C\c1ccc(-c2ncn(-c3ccc(OC(F)(F)F)cc3)n2)cc1 [Compound 193C]	50 to 100
FC(F)(F)Oc1ccc(-n2cnc(-c3ccc(/C=N/N=C4\SCCCN4c4ccccc4-c4ccccc4)cc3)n2)cc1 [Compound 194C]	50 to 100
Cc1ccccc1N1CCCS/C1=N\N=C\c1ccc(-c2ncn(-c3ccc(OC(F)(F)F)cc3)n2)cc1 [Compound 195C]	50 to 100
Cc1cccc(Cl)c1N1CCCS/C1=N\N=C\c1ccc(-c2ncn(-c3ccc(OC(F)(F)F)cc3)n2)cc1 [Compound 196C]	50 to 100
CC(C)=Cc1ccccc1N1CCCS/C1=N\N=C\c1ccc(-c2ncn(-c3ccc(OC(F)(F)F)cc3)n2)cc1 [Compound 197C]	50 to 100
Cc1cccnc1N1CCCS/C1=N\N=C\c1ccc(-c2ncn(-c3ccc(OC(F)(F)F)cc3)n2)cc1 [Compound 198C]	50 to 100
COc1ccc(N2CCCS/C2=N\N=C\c2ccc(-c3ncn(-c4ccc(OC(F)(F)F)cc4)n3)cc2)cc1 [Compound 202C]	50 to 100
Cc1cc(Br)cc(C)c1N1CCCS/C1=N\N=C\c1ccc(-c2ncn(-c3ccc(OC(F)(F)F)cc3)n2)cc1 [Compound 203C]	50 to 100
COc1ccc(C)cc1N1CCCS/C1=N\N=C\c1ccc(-c2ncn(-c3ccc(OC(F)(F)F)cc3)n2)cc1 [Compound 204C]	50 to 100
Cc1ncccc1N1CCCS/C1=N\N=C\c1ccc(-c2ncn(-c3ccc(OC(F)(F)F)cc3)n2)cc1 [Compound 205C]	50 to 100
COc1cccc(N2CCCS/C2=N\N=C\c2ccc(-c3ncn(-c4ccc(OC(F)(F)F)cc4)n3)cc2)c1 [Compound 206C]	50 to 100
CCOc1ccccc1N1CCCS/C1=N\N=C\c1ccc(-c2ncn(-c3ccc(OC(F)(F)F)cc3)n2)cc1 [Compound 208C]	50 to 100
Cc1cccc(C)c1N1CCCCS/C1=N\N=C\c1ccc(-c2ncn(-c3ccc(OC(F)(F)F)cc3)n2)cc1 [Compound 211C]	50 to 100
CC(C)c1ccccc1N1CCCCS/C1=N\N=C\c1ccc(-c2ncn(-c3ccc(OC(F)(F)F)cc3)n2)cc1 [Compound 212C]	50 to 100
CCc1cccc(C)c1N1/C(=N/N=C/c2ccc(-c3ncn(-c4ccc(OC(F)(F)F)cc4)n3)cc2)SCCC1C (stereo not drawn) [Compound 213C]	50 to 100
CC(C)c1ccccc1N1C(=O)CCS/C1=N\N=C\c1ccc(-c2ncn(-c3ccc(OC(F)(F)F)cc3)n2)cc1 [Compound 224C]	50 to 100
CC1(O)CS/C(=N\N=C\c2ccc(-c3ncn(-c4ccc(OC(F)(F)F)cc4)n3)cc2)N1c1c(F)cccc1F (stereo not drawn) [Compound 240C]	50 to 100

test system: Green Peach Aphid (GPA) (Myzus persicae); assay: Bioassay on green peach aphid (GPA), foliar spray on cabbage seedlings; format: in vivo; details: green peach aphid, 200 ppm, read-out: % Mortality GPA 200 ppm
Summary of the method: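 Cabbage seedlings (2-3 true leaves), each infested a day earlier with 20-50 wingless adult and nymph GPA, were sprayed on both leaf sides to runoff, four pots per treatment. Corrected % control was calculated against solvent-check plants.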

SMILES	mortality at 200 ppm [%]
Fc1cccc(Cl)c1N1CCCS/C1=N\N=C\c1ccc(-c2ncn(-c3ccc(OC(F)(F)F)cc3)n2)cc1 [Compound 188C]	0 to 80
Fc1cccc(F)c1N1CCCS/C1=N\N=C\c1ccc(-c2ncn(-c3ccc(OC(F)(F)F)cc3)n2)cc1 [Compound 189C]	0 to 80
FC(F)(F)Oc1ccc(-n2cnc(-c3ccc(/C=N/N=C4\SCCCN4c4c(Cl)cccc4C(F)(F)F)cc3)n2)cc1 [Compound 190C]	0 to 80
COc1ccccc1N1CCCS/C1=N\N=C\c1ccc(-c2ncn(-c3ccc(OC(F)(F)F)cc3)n2)cc1 [Compound 191C]	0
COc1ccc(N2CCCS/C2=N\N=C\c2ccc(-c3ncn(-c4ccc(OC(F)(F)F)cc4)n3)cc2)c(C)c1 [Compound 192C]	0 to 80
CC(C)Cc1ccccc1N1CCCS/C1=N\N=C\c1ccc(-c2ncn(-c3ccc(OC(F)(F)F)cc3)n2)cc1 [Compound 193C]	0 to 80
FC(F)(F)Oc1ccc(-n2cnc(-c3ccc(/C=N/N=C4\SCCCN4c4ccccc4-c4ccccc4)cc3)n2)cc1 [Compound 194C]	0 to 80
Cc1ccccc1N1CCCS/C1=N\N=C\c1ccc(-c2ncn(-c3ccc(OC(F)(F)F)cc3)n2)cc1 [Compound 195C]	0 to 80
Cc1cccc(Cl)c1N1CCCS/C1=N\N=C\c1ccc(-c2ncn(-c3ccc(OC(F)(F)F)cc3)n2)cc1 [Compound 196C]	0
CC(C)=Cc1ccccc1N1CCCS/C1=N\N=C\c1ccc(-c2ncn(-c3ccc(OC(F)(F)F)cc3)n2)cc1 [Compound 197C]	0
Cc1cccnc1N1CCCS/C1=N\N=C\c1ccc(-c2ncn(-c3ccc(OC(F)(F)F)cc3)n2)cc1 [Compound 198C]	0
COc1ccc(N2CCCS/C2=N\N=C\c2ccc(-c3ncn(-c4ccc(OC(F)(F)F)cc4)n3)cc2)cc1 [Compound 202C]	0 to 80
Cc1cc(Br)cc(C)c1N1CCCS/C1=N\N=C\c1ccc(-c2ncn(-c3ccc(OC(F)(F)F)cc3)n2)cc1 [Compound 203C]	0 to 80
COc1ccc(C)cc1N1CCCS/C1=N\N=C\c1ccc(-c2ncn(-c3ccc(OC(F)(F)F)cc3)n2)cc1 [Compound 204C]	0 to 80
Cc1ncccc1N1CCCS/C1=N\N=C\c1ccc(-c2ncn(-c3ccc(OC(F)(F)F)cc3)n2)cc1 [Compound 205C]	0 to 80
COc1cccc(N2CCCS/C2=N\N=C\c2ccc(-c3ncn(-c4ccc(OC(F)(F)F)cc4)n3)cc2)c1 [Compound 206C]	0
CCOc1ccccc1N1CCCS/C1=N\N=C\c1ccc(-c2ncn(-c3ccc(OC(F)(F)F)cc3)n2)cc1 [Compound 208C]	0
Cc1cccc(C)c1N1CCCCS/C1=N\N=C\c1ccc(-c2ncn(-c3ccc(OC(F)(F)F)cc3)n2)cc1 [Compound 211C]	0
CC(C)c1ccccc1N1CCCCS/C1=N\N=C\c1ccc(-c2ncn(-c3ccc(OC(F)(F)F)cc3)n2)cc1 [Compound 212C]	0
CCc1cccc(C)c1N1/C(=N/N=C/c2ccc(-c3ncn(-c4ccc(OC(F)(F)F)cc4)n3)cc2)SCCC1C (stereo not drawn) [Compound 213C]	0 to 80
CC(C)c1ccccc1N1C(=O)CCS/C1=N\N=C\c1ccc(-c2ncn(-c3ccc(OC(F)(F)F)cc3)n2)cc1 [Compound 224C]	0 to 80
CC1(O)CS/C(=N\N=C\c2ccc(-c3ncn(-c4ccc(OC(F)(F)F)cc4)n3)cc2)N1c1c(F)cccc1F (stereo not drawn) [Compound 240C]	0

test system: Corn Earworm (CEW) (Helicoverpa zea); assay: Bioassay on corn earworm (CEW), 128-well diet tray assay; format: in vivo; details: Helicoverpa zea; corn earworm, 50 μg/cm^2; read-out: % Mortality CEW 50 μg/cm^2
Summary of the method: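 Activity was scored as percent larval mortality per well, averaged across eight wells and reported on a rating scale. Diet trays (128-well) were kept at 25° C with 14:10 light-dark for five to seven days.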

SMILES	mortality at 50 µg/cm2 [%]
Fc1cccc(Cl)c1N1CCCS/C1=N\N=C\c1ccc(-c2ncn(-c3ccc(OC(F)(F)F)cc3)n2)cc1 [Compound 188C]	50 to 100
Fc1cccc(F)c1N1CCCS/C1=N\N=C\c1ccc(-c2ncn(-c3ccc(OC(F)(F)F)cc3)n2)cc1 [Compound 189C]	50 to 100
FC(F)(F)Oc1ccc(-n2cnc(-c3ccc(/C=N/N=C4\SCCCN4c4c(Cl)cccc4C(F)(F)F)cc3)n2)cc1 [Compound 190C]	50 to 100
COc1ccccc1N1CCCS/C1=N\N=C\c1ccc(-c2ncn(-c3ccc(OC(F)(F)F)cc3)n2)cc1 [Compound 191C]	50 to 100
COc1ccc(N2CCCS/C2=N\N=C\c2ccc(-c3ncn(-c4ccc(OC(F)(F)F)cc4)n3)cc2)c(C)c1 [Compound 192C]	50 to 100
CC(C)Cc1ccccc1N1CCCS/C1=N\N=C\c1ccc(-c2ncn(-c3ccc(OC(F)(F)F)cc3)n2)cc1 [Compound 193C]	50 to 100
FC(F)(F)Oc1ccc(-n2cnc(-c3ccc(/C=N/N=C4\SCCCN4c4ccccc4-c4ccccc4)cc3)n2)cc1 [Compound 194C]	50 to 100
Cc1ccccc1N1CCCS/C1=N\N=C\c1ccc(-c2ncn(-c3ccc(OC(F)(F)F)cc3)n2)cc1 [Compound 195C]	50 to 100
Cc1cccc(Cl)c1N1CCCS/C1=N\N=C\c1ccc(-c2ncn(-c3ccc(OC(F)(F)F)cc3)n2)cc1 [Compound 196C]	50 to 100
CC(C)=Cc1ccccc1N1CCCS/C1=N\N=C\c1ccc(-c2ncn(-c3ccc(OC(F)(F)F)cc3)n2)cc1 [Compound 197C]	50 to 100
Cc1cccnc1N1CCCS/C1=N\N=C\c1ccc(-c2ncn(-c3ccc(OC(F)(F)F)cc3)n2)cc1 [Compound 198C]	50 to 100
COc1ccc(N2CCCS/C2=N\N=C\c2ccc(-c3ncn(-c4ccc(OC(F)(F)F)cc4)n3)cc2)cc1 [Compound 202C]	50 to 100
Cc1cc(Br)cc(C)c1N1CCCS/C1=N\N=C\c1ccc(-c2ncn(-c3ccc(OC(F)(F)F)cc3)n2)cc1 [Compound 203C]	50 to 100
COc1ccc(C)cc1N1CCCS/C1=N\N=C\c1ccc(-c2ncn(-c3ccc(OC(F)(F)F)cc3)n2)cc1 [Compound 204C]	50 to 100
Cc1ncccc1N1CCCS/C1=N\N=C\c1ccc(-c2ncn(-c3ccc(OC(F)(F)F)cc3)n2)cc1 [Compound 205C]	50 to 100
COc1cccc(N2CCCS/C2=N\N=C\c2ccc(-c3ncn(-c4ccc(OC(F)(F)F)cc4)n3)cc2)c1 [Compound 206C]	50 to 100
CCOc1ccccc1N1CCCS/C1=N\N=C\c1ccc(-c2ncn(-c3ccc(OC(F)(F)F)cc3)n2)cc1 [Compound 208C]	50 to 100
Cc1cccc(C)c1N1CCCCS/C1=N\N=C\c1ccc(-c2ncn(-c3ccc(OC(F)(F)F)cc3)n2)cc1 [Compound 211C]	50 to 100
CC(C)c1ccccc1N1CCCCS/C1=N\N=C\c1ccc(-c2ncn(-c3ccc(OC(F)(F)F)cc3)n2)cc1 [Compound 212C]	50 to 100
CCc1cccc(C)c1N1/C(=N/N=C/c2ccc(-c3ncn(-c4ccc(OC(F)(F)F)cc4)n3)cc2)SCCC1C (stereo not drawn) [Compound 213C]	50 to 100
CC(C)c1ccccc1N1C(=O)CCS/C1=N\N=C\c1ccc(-c2ncn(-c3ccc(OC(F)(F)F)cc3)n2)cc1 [Compound 224C]	50 to 100
CC1(O)CS/C(=N\N=C\c2ccc(-c3ncn(-c4ccc(OC(F)(F)F)cc4)n3)cc2)N1c1c(F)cccc1F (stereo not drawn) [Compound 240C]	50 to 100

Source: US8916183B2, “Pesticidal compositions and processes related thereto” (priority 2012, dated 2014)
